In US9420794B2, “Herbicidal composition” (ISHIHARA SANGYO KAISHA, LTD., priority 2012, dated 2016):
Where two headings read alike, the source gives them in different places.

Columns and labels:
Type in all cases: in vivo
[1] = system: annual ragweed (Ambrosia artemisiifolia L.); assay: Test Example 3: pot test, foliar treatment, growth inhibition of annual ragweed; settings: read-out: Growth inhibition rate of annual ragweed (%) Measured value
Description: (§1) Growth inhibition rate (%)=0 (equivalent to the non-treated area) to 100 (complete kill)
Upland field soil was put into a 1/1,000,000 ha pot, and seeds of annual ragweed (Ambrosia artemisiifolia L.) were sown. When the annual ragweed reached 6.0 to 8.0-leaf stage, predetermined amounts of ONEHOPE NYUZAI (tradename), Clio (tradename) and Spectrum (tradename) were diluted with water (in an amount corresponding to 300 L/ha) and applied for foliar treatment by a small sprayer.
(§2) On the 20 th day after treatment, the state of growth of the annual ragweed was visually observed to determine the growth inhibition rate (%). The growth inhibition rate (%) (measured value) and the growth inhibition rate (%) calculated in the same manner as in the above Test Example 1 are shown in Table 3.

[2] = system: wild oat (Avena fatua L.); assay: Test Example 4: pot test, soil treatment, growth inhibition of wild oat; settings: read-out: Growth inhibition rate of wild oat (%) Measured value
Description: as §1
(§3) Upland field soil was put into a 1/160,000 ha pot, and seeds of wild oat (Avena fatua L.) were sown. On the next day, predetermined amounts of ONEHOPE NYUZAI (tradename), Clio (tradename) and Spectrum (tradename) were diluted with water (in an amount corresponding to 300 L/ha) and applied for soil treatment by a small sprayer.
as §2, with “28” for “20”, “wild oat” for “annual ragweed”, “4.” for “3.”

[3] = system: velvetleaf (Abutilon theophrasti Medic.); assay: Test Example 1: pot test, soil treatment, growth inhibition of velvetleaf; settings: read-out: Growth inhibition rate of velvetleaf (%) Measured value
Text: Upland field soil was put into a 1/300,000 ha pot, and seeds of velvetleaf (Abutilon theophrasti Medic.) were sown. On the next day, predetermined amounts of a flowable containing nicosulfuron as an active ingredient (tradename: ONEHOPE NYUZAI, manufactured by Ishihara Sangyo Kaisha, Ltd.), an emulsifiable concentrate containing dimethenamid-P as an active ingredient (tradename: Spectrum, manufactured by BASF) and a flowable containing topramezone as an active ingredient (tradename: Clio, manufactured by BASF) were diluted with water (in an amount corresponding to 1,000 L/ha) and applied for soil treatment by a small sprayer.
On the 28th day after treatment, the state of growth of the velvetleaf was visually observed to determine the growth inhibition rate (%) in accordance with the following evaluation standard. The growth inhibition rate (%) (measured value) and the growth inhibition rate (%) (calculated value) calculated by the Colby's formula are shown in Table 1.
as §1

[4] = system: korean lespedeza (Kummerowia stipulacea (Maxim.) Makino); assay: Test Example 2: pot test, soil treatment, growth inhibition of korean lespedeza; settings: read-out: Growth inhibition rate of korean lespedeza (%) Measured value
Description: as §1
as §3, with “korean lespedeza (Kummerowia stipulacea (Maxim.) Makino)” for “wild oat (Avena fatua L.)”
as §2, with “14th” for “20 th”, “korean lespedeza” for “annual ragweed”, “2.” for “3.”

Structure (SMILES): Cc1c(C(=O)c2cnn(C)c2O)ccc(S(C)(=O)=O)c1C1=NOCC1 [Topramezone, [3-(4,5-dihydro-1,2-oxazol-3-yl)-4-mesyl-o-tolyl](5-hydroxy-1-methylpyrazol-4-yl)methanone]
- inhibition at 20 g/ha ([1]; foliar): 40%
- inhibition at 50 g/ha ([1]; foliar): 65%
- inhibition at 15 g/ha ([2]; soil): 0%
- inhibition at 20 g/ha ([3]; soil): 60%
- inhibition at 15 g/ha ([4]; soil): 0%
- inhibition at 100 g/ha ([4]; soil): 10%

Structure (SMILES): COc1cc(OC)nc(NC(=O)NS(=O)(=O)c2ncccc2C(=O)N(C)C)n1 [Nicosulfuron, 2-(4,6-dimethoxypyrimidin-2-ylcarbamoylsulfamoyl)-N,N-dimethylnicotinamide]
- inhibition at 30 g/ha ([1]; dose 30 g/ha, foliar treatment at 6.0 to 8.0-leaf stage, 20th day after treatment): 13%
- inhibition at 100 g/ha ([2]; dose 100 g/ha, soil treatment, 28th day after treatment): 60%
- inhibition at 15 g/ha ([3]; dose 15 g/ha, soil treatment, 28th day after treatment): 0%
- inhibition at 10 g/ha ([4]; dose 10 g/ha, soil treatment, 14th day after treatment): 0%
- inhibition at 100 g/ha ([4]; dose 100 g/ha, soil treatment, 14th day after treatment): 10%

Structure (SMILES): COC[C@H](C)N(C(=O)CCl)c1c(C)csc1C [Dimethenamid-P, (S)-2-chloro-N-(2,4-dimethyl-3-thienyl)-N-(2-methoxy-1-methylethyl)acetamide]
- inhibition at 500 g/ha ([1]; dose 500 g/ha, foliar treatment at 6.0 to 8.0-leaf stage, 20th day after treatment): 0%
- inhibition at 1000 g/ha ([1]; dose 1000 g/ha, foliar treatment at 6.0 to 8.0-leaf stage, 20th day after treatment): 0%
- inhibition at 250 g/ha ([2]; dose 250 g/ha, soil treatment, 28th day after treatment): 60%
- inhibition at 500 g/ha ([3]; dose 500 g/ha, soil treatment, 28th day after treatment): 20%
- inhibition at 250 g/ha ([4]; dose 250 g/ha, soil treatment, 14th day after treatment): 30%
- inhibition at 1500 g/ha ([4]; dose 1500 g/ha, soil treatment, 14th day after treatment): 30%
